According to patent publication US10010539B2, “Pyrazole, triazole and tetrazole orexin receptor antagonists” (MERCK SHARP & DOHME CORP., priority 2014, dated 2018):

Legend:
human orexin-2 receptor = human orexin-2 receptor (Homo sapiens (Human), UniProt O43614); test: FLIPR Ca2+ Flux Assay, orexin-2 receptor (hOX2R FLIPR); type: cell-based; settings: CHO cells expressing the human orexin-2 receptor; agonist 70 pM Ala-6,12 human orexin-A
Method: (§1) The utility of the compounds in accordance with the present invention as orexin receptor OX1R and/or OX2R antagonists may be readily determined without undue experimentation by methodology well known in the art, including the “FLIPR Ca^2+ Flux Assay” (Okumura et al., Biochem. Biophys. Res. Comm. 280:976-981, 2001). In a typical experiment the OX1 and OX2 receptor antagonistic activity of the compounds of the present invention was determined in accordance with the following experimental method. For intracellular calcium measurements, Chinese hamster ovary (CHO) cells expressing the rat orexin-1 receptor or the human orexin-2 receptor, are grown in Iscove's modified DMEM containing 2 mM L-glutamine, […], 1% hypoxanthine-thymidine supplement, 100 U/ml penicillin, 100 μg/ml streptomycin and 10% heat-inactivated fetal calf serum (FCS). The cells are seeded at 20,000 cells/well into Becton-Dickinson black 384-well clear bottom sterile plates coated with poly-D-lysine. All reagents were from GIBCO-Invitrogen Corp. The seeded plates are incubated overnight at 37° C. and 5% CO2. Ala-6,12 human orexin-A as the agonist is prepared as a 1 mM stock solution in 1% bovine serum albumin (BSA) and diluted in assay buffer (HBSS containing 20 mM HEPES, 0.1% BSA and 2.5 mM probenecid, pH7.4) for use in the assay at a final concentration of 70 pM. Test compounds are prepared as 10 mM stock solution in DMSO, then diluted in 384-well plates, first in DMSO, then assay buffer. On the day of the assay, cells are washed 3 times with 100 μl assay buffer and then incubated for 60 min (37° C., 5% CO2) in 60 μl assay buffer containing 1 μM Fluo-4AM ester, 0.02% pluronic acid, and 1% BSA. The dye loading solution is then aspirated and cells are washed 3 times with 100 μl assay buffer. 30 μl of that same buffer is left in each well. Within the Fluorescent Imaging Plate Reader (FLIPR, Molecular Devices), test compounds are added to the plate in a volume of 25 μl, incubated for 5 min and finally 25 μl of agonist is added. Fluorescence is measured for each well at 1 second intervals for 5 minutes and the height of each fluorescence peak is compared to the height of the fluorescence peak induced by 70 pM Ala-6,12 orexin-A with buffer in place of antagonist. For each antagonist, IC50 value (the concentration of compound needed to inhibit 50% of the agonist response) is determined. Alternatively, compound potency can be assessed by a radioligand binding assay (described in Bergman et. al. Bioorg. Med. Chem. Lett. 2008, 18, 1425-1430) in which the inhibition constant (Ki) is determined in membranes prepared from CHO cells expressing either the OX1 or OX2 receptor. The intrinsic orexin receptor antagonist activity of a compound which may be used in the present invention may be determined by these assays.

[1] = target: hOXIR (orexin-1 receptor) (Homo sapiens, UniProt O43613); test: FLIPR Ca2+ Flux Assay, orexin-1 receptor (hOXIR FLIPR); type: cell-based; settings: CHO cells expressing the orexin-1 receptor (method text: rat; table head: hOXIR); agonist 70 pM Ala-6,12 human orexin-A
Method: as §1

human orexin-2 receptor, sequence (O43614 whole entry): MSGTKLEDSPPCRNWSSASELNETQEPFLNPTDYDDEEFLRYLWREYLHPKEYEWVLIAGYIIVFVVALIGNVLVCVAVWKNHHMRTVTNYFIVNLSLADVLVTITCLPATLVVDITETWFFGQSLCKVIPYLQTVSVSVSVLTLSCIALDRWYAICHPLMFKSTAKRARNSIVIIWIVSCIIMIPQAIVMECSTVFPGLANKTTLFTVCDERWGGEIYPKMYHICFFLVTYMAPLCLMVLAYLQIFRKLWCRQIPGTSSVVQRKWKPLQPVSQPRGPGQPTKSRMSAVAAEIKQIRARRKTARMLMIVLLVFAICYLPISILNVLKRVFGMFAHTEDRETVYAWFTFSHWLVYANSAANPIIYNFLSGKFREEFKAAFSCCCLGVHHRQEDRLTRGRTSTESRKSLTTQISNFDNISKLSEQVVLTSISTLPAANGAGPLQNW

| SMILES | IC50 (human orexin-2 receptor) [nM] | IC50 [1] [nM] |
| --- | --- | --- |
| Cc1nn([C@@H]2CC[C@@H](C)N(C(=O)c3ccccc3-n3nccn3)C2)cc1C(C)(C)O [Example 107, 2-{3-Methyl-1-[(3R,6R)-6-methyl-1-{[2-(2H-1,2,3-triazol-2-yl)phenyl]carbonyl}piperidin-3-yl]-1H-pyrazol-4-yl}propan-2-ol] | 13.8 | 339 |
| C[C@@H]1CC[C@@H](n2ncc(C(C)(C)O)n2)CN1C(=O)c1ccccc1OC(F)(F)F [Example 19, ((2R,5R)-5-(4-(2-Hydroxypropan-2-yl)-2H-1,2,3-triazol-2-yl)-2-methylpiperidin-1-yl)(2-(trifluoromethoxy)phenyl)methanone] | 12.1 | 2800 |
| Cc1c(C(C)(C)O)cnn1[C@@H]1CC[C@@H](C)N(C(=O)c2ccccc2-n2nccn2)C1 [Example 108, 2-{5-Methyl-1-[(3R,6R)-6-methyl-1-{[2-(2H-1,2,3-triazol-2-yl)phenyl]carbonyl}piperidin-3-yl]-1H-pyrazol-4-yl}propan-2-ol] | 73.2 | 3370 |
| Cc1cccc(C(=O)N2C[C@H](n3ncc(C(C)(C)O)n3)CC[C@H]2C)c1-n1nccn1 [Example 46] | 56.4 | > 10000 |
| C[C@@H]1CC[C@@H](n2ncc(C(C)(C)O)n2)CN1C(=O)c1cccc2ccnn12 [Example 57, 2-{2-[(3R,6R)-6-Methyl-1-(pyrazolo[1,5-a]pyridin-7-ylcarbonyl)piperidin-3-yl]-2H-1,2,3-triazol-4-yl}propan-2-ol] | 489 | > 10000 |
| Cc1cnn(-c2ncccc2C(=O)N2C[C@H](n3ncc(C(C)(C)O)n3)CC[C@H]2C)c1 [Example 10, ((2R,5R)-5-(4-(2-Hydroxypropan-2-yl)-2H-1,2,3-triazol-2-yl)-2-methylpiperidin-1-yl)(2-(4-methyl-1H-pyrazol-1-yl)pyridin-3-yl)methanone] | 26 | > 10000 |
| Cc1ccc(-n2nccn2)c(C(=O)N2C[C@H](n3ncc(C(C)(C)O)n3)CC[C@H]2C)c1 [Example 52, 2-{2-[(3R,6R)-6-methyl-1-{[5-methyl-2-(2H-1,2,3-triazol-2-yl)phenyl]carbonyl}piperidin-3-yl]-2H-1,2,3-triazol-4-yl}propan-2-ol] | 59.8 | 3090 |
| Cc1cccc(-n2nccn2)c1C(=O)N1C[C@H](n2ncc(C(C)(C)O)n2)CC[C@H]1C [Example 53, 2-{2-[(3R,6R)-6-methyl-1-{[2-methyl-6-(2H-1,2,3-triazol-2-yl)phenyl]carbonyl}piperidin-3-yl]-2H-1,2,3-triazol-4-yl}propan-2-ol] | 31.1 | 1810 |
| C[C@@H]1CC[C@@H](n2ncc(C(C)(C)O)n2)CN1C(=O)c1ccccc1-n1nccn1 [Example 25, (2-(2H-1,2,3-triazol-2-yl)phenyl)((2R,5R)-5-(4-(2-hydroxypropan-2-yl)-2H-1,2,3-triazol-2-yl)-2-methylpiperidin-1-yl)methanone] | 7.5 | 594 |
| Cc1nn([C@@H]2CC[C@@H](C)N(C(=O)c3ccccc3-n3nccn3)C2)nc1C(C)(C)O [Example 62, 2-{5-Methyl-2-[(3R,6R)-6-methyl-1-{[2-(2H-1,2,3-triazol-2-yl)phenyl]carbonyl}piperidin-3-yl]-2H-1,2,3-triazol-4-yl}propan-2-ol] | 12.5 | 1250 |
| C[C@@H]1CC[C@@H](n2ncc(C(C)(C)O)n2)CN1C(=O)c1ccccc1SC(F)(F)F [Example 11, 2-{2-[(3R,6R)-6-Methyl-1-({2-[(trifluoromethyl)sulfanyl]pheny}carbonyl)piperidin-3-yl]-2H-1,2,3-triazol-4-yl}propan-2-ol] | 20 | 2550 |
| C[C@@H]1CC[C@@H](n2cc(C(C)(C)O)cn2)CN1C(=O)c1ccccc1OCC(F)(F)F [Example 80, 2-{1-[(3R,6R)-6-Methy-1-{[2-(2,2,2-trifluoroethoxy)phenyl]carbonyl}piperidin-3-yl]-1H-pyrazol-4-yl}propan-2-ol] | 165 | > 10000 |
| C[C@@H]1CC[C@@H](n2cc(C(C)(C)O)cn2)CN1C(=O)c1cccnc1OCC(F)(F)F [Example 94, 2-{1-[(3R,6R)-6-Methyl-1-{[2-(2,2,2-trifluoroethoxy)pyridin-3-yl]carbonyl}piperidin-3-yl]-1H-pyrazol-4-yl}propan-2-ol] | 37 | > 10000 |
| Cc1noc(-c2cc(F)ccc2C(=O)N2C[C@H](n3ncc(C(C)(C)O)n3)CC[C@H]2C)n1 [Example 41, 2-{2-[(3R,6R)-1-{[4-fluoro-2-(3-methyl-1,2,4-oxadiazol-5-yl)phenyl]carbonyl}-6-methylpiperidin-3-yl]-2H-1,2,3-triazol-4-yl}propan-2-ol] | 173 | > 10000 |
| C[C@@H]1CC[C@@H](n2cc(C(C)(C)O)cn2)CN1C(=O)c1ccccc1OCC(F)F [Example 79, 2-{1-[(3R,6R)-1-{[2-(2,2-Difluoroethoxy)phenyl]carbonyl}-6-methylpiperidin-3-yl]-1H-pyrazol-4-yl}propan-2-ol] | 127 | > 10000 |
| Cc1nc(-c2cc(F)ccc2C(=O)N2C[C@H](n3ncc(C(C)(C)O)n3)CC[C@H]2C)no1 [Example 40, 2-{2-[(3R,6R)-1-{[4-fluoro-2-(5-methyl-1,2,4-oxadiazol-3-yl)phenyl]carbonyl}-6-methylpiperidin-3-yl]-2H-1,2,3-triazol-4-yl}propan-2-ol] | 86.7 | > 10000 |
| CC(C)Oc1ccccc1C(=O)N1C[C@H](n2cc(C(C)(C)O)cn2)CC[C@H]1C [Example 81, 2-{1-[(3R,6R)-6-Methyl-1-{[2-(1-methylethoxy)phenyl]carbonyl}piperidin-3-yl]-1H-pyrazol-4-yl}propan-2-ol] | 89.8 | > 10000 |
| Cc1noc(-c2ccccc2C(=O)N2C[C@H](n3ncc(C(C)(C)O)n3)CC[C@H]2C)n1 [Example 36, 2-{2-[(3R,6R)-6-methyl-1-{[2-(3-methyl-1,2,4-oxadiazol-5-yl)phenyl]carbonyl}piperidin-3-yl]-2H-1,2,3-triazol-4-yl}propan-2-ol] | 62.9 | > 10000 |
| Cc1nn([C@@H]2CC[C@@H](C)N(C(=O)c3ccc(F)cc3-n3nccn3)C2)nc1C(C)(C)O [Example 72, 2-{2-[(3R,6R)-1-{[4-Fluoro-2-(2H-1,2,3-triazol-2-yl)phenyl]carbonyl}-6-methylpiperidin-3-yl]-5-methyl-2H-1,2,3-triazol-4-yl}propan-2-ol] | 15.2 | 1290 |
| COc1cccc(-n2nccn2)c1C(=O)N1C[C@H](n2ncc(C(C)(C)O)n2)CC[C@H]1C [Example 51, 2-{2-[(3R,6R)-1-{[2-methoxy-6-(2H-1,2,3-triazol-2-yl)phenyl]carbonyl}-6-methylpiperidin-3-yl]-2H-1,2,3-triazol-4-yl}propan-2-ol] | 67.4 | > 10000 |
| C[C@@H]1CC[C@@H](n2cc([C@H](O)C(F)(F)F)cn2)CN1C(=O)c1ccccc1-n1nccn1 [Example 103, (1S)-2,2,2-Trifluoro-1-{1-[(3R,6R)-6-methyl-1-{[2-(2H-1,2,3-triazol-2-yl)phenyl]carbonyl}piperidin-3-yl]-1H-pyrazol-4-yl}ethanol] | 102 | > 10000 |
| C[C@@H]1CC[C@@H](n2ncc(C(C)(C)O)n2)CN1C(=O)c1cccnc1OCC(F)F [Example 13, (2-(2,2-Difluoroethoxy)pyridin-3-yl)((2R,5R)-5-(4-(2-hydroxypropan-2-yl)-2H-1,2,3-triazol-2-yl)-2-methylpiperidin-1-yl)methanone] | 14.3 | > 10000 |
| CC(C)Oc1ncccc1C(=O)N1C[C@H](n2cc(C(C)(C)O)cn2)CC[C@H]1C [Example 97, 2-{1-[(3R,6R)-6-Methyl-1-{[2-(1-methylethoxy)pyridin-3-yl]carbonyl}piperidin-3-yl]-1H-pyrazol-4-yl}propan-2-ol] | 240 | > 10000 |
| C[C@@H]1CC[C@@H](n2ncc(C(C)(C)O)n2)CN1C(=O)c1cccc(Oc2ccccc2)c1 [Example 50, 2-(2-{(3R,6R)-6-methyl-1-[(3-phenoxyphenyl)carbonyl]piperidin-3-yl}-2H-1,2,3-triazol-4-yl)propan-2-ol] | 126 | > 10000 |
